Here are results for one compound from patent EP4624497A1, “PHOSPHOEN[…] PROBE, PREPARATION METHOD THEREFOR AND APPLICATION THEREOF” (priority 2022, dated 2024).

The subject of the experiment is 293 cells with optical probe plasmids expressed in the cytosol. The experiment can be described thus: dynamic monitoring of phosphoenolpyruvate in the cytosol with the optical probe. The format is cell-based. Conditions: 5 mM Oxalate added, detection continued for 30 minutes, HBSS solution. How it is done:
• 1. pCDNA3.1+-based phosphoenolpyruvate optical probe plasmids were transfected into HEK293 by using the transfection reagent Lipofectamine2000 (Invitrogen) and incubated in a cell incubator at 37 °C with 5% CO2. After the exogenous gene was fully expressed for 24~36 hours, the fluorescence detection was performed. • 2. After induction of expression, adherent HEK293 cells were washed three times with PBS and placed in HBSS solution for fluorescence microscopy and microplate reader assays, respectively.
In this example, different localization signal peptides were used to fuse to the optical probe 254/255-TtPFK- I253K/Q254L/R255L/G256F-cpYFP-Y1S which was localized in different organelles.
Thirty-six hours after transfection of 293 cells with optical probe plasmids expressed in the cytosol, the cells were rinsed with PBS, placed in an HBSS solution, and the change in the ratio of the fluorescence intensity at an excitation of 420 nm and an emission of 528 nm to that at an excitation of 485 nm and an emission of 528 nm was detected in a 30-minute period.

Structures are written as SMILES.

As to `O=C(O)C(=O)O` [Oxalate], the 485/420 ratio result is “up to 3.5 times the initial value”.
